Here are results for 2 molecules from paper PMC5063977 (The Journal of Biological Chemistry, 2016).

For assay [1], the system named is untransfected HEK-293 cells. Kind of assay: forskolin-stimulated cAMP accumulation, untransfected HEK-293 cells. It is filed as cell-based, human. Background: Changes in cAMP serve as a functional read-out for many G protein-coupled receptors.
Assay [2] has as its system RAMP-CLR complexes (RAMP1, RAMP2, RAMP3). Kind of assay: (Ca^2+)i mobilization with inhibitor pretreatment, HEK-293 cells, all RAMP-CLR complexes. It counts as cell-based, human. As to conditions: HEK-293, any RAMP-CLR complex. On the procedure:
FIGURE 8. CLR in combination with each RAMP generates receptors that mobilize (Ca^2+)i release when expressed in HEK-293 cells. (Ca^2+)i mobilization was determined from HEK-293 cells transiently transfected with CLR and RAMP1 (n = 5) (A), RAMP2 (n = 5) (B), and RAMP3 (n = 5) (C). […] Data are expressed as percentage of the maximal (Ca^2+)i release as determined using 10 μM ionomycin. To determine the contribution made by different G proteins to the (Ca^2+)i response, cells were preincubated with either PTX (to inhibit Gαi) or YM-254890 (a selective Gαq inhibitor). All values are means ± S.E. of n individual data sets.
HEK-293 cells, provided by Dr. Jügen Müller (University of Aston), were cultured in DMEM supplemented with 10% heat-inactivated FBS and kept at 37 °C in a humidified 95% air, 5% CO2 incubator. HEK-293S cells (a gift from AstraZeneca) were cultured in DMEM supplemented with 8% heat-inactivated FBS and kept at 37 °C in a humidified 95% air, 5% CO2 incubator. HEK-293 cells were transfected with FuGENE 6 (Roche Applied Science) in accordance with the manufacturer's instructions using a 1:3 (w:v) DNA:FuGENE ratio and a 1:1 ratio of RAMP to CLR. HEK-293S cells were seeded into 96-well poly-D-lysine-coated plates at a density of 15,000 cells/well (determined using a Countess^TM cell counter, Invitrogen) 1 day prior to transfection. HEK-293S cells were transiently transfected as described previously ([38]) using a 1:1 ratio of RAMP to CLR. The transfected cell lines were grown for 24–48 h prior to assaying.
Transfected HEK-293 cells were grown to confluence in black, clear bottomed, 96-well plates. […] Ligands were added robotically using a Mithras LB 940 multimode microplate reader in the range of 10 pM to 1 μM, and fluorescence was determined immediately post-injection with an excitation wavelength set to 485 nm and an emission wavelength set to 535 nm. […] Peak magnitude was calculated using five-point smoothing followed by correction against background fluorescence. […]

Turning to `C=C[C@@]1(C)CC(=O)[C@]2(O)[C@@]3(C)[C@@H](O)CCC(C)(C)[C@@H]3[C@H](O)[C@H](OC(C)=O)[C@@]2(C)O1` [forskolin, Forskolin], the “overall level of cAMP accumulation, forskolin stimulation” value stood at 16.45 ± 2.4 pmol cell^−1 in assay [1] (untransfected HEK-293, PTX treated) and 16.57 ± 2.5 pmol cell^−1 in assay [1] (untransfected HEK-293, untreated (no PTX)).
Take pertussis toxin [PTX]: in assay [2], the “effect of PTX on calcium released in response to the three ligands” value is listed as “no effect”.
